According to patent publication US9817000B2, “Method for identifying compounds that modulate a T2R taste receptor” (The Regents of the University of California, priority 1999, dated 2017):

How the values were obtained:
[1] = biological target: T1, mT2R5 coupling to gustducin (Mus musculus, UniProt Q9JKT4); assay: Tastant-induced GTPγS binding to gustducin with insect cell membranes containing rho-mT2R5; type: biochemical
T1 construct: infectious Bacmid containing rhodopsin tagged mT2R5 (DBA/2-allele) was produced using the Bac-to-Bac system; rhodopsin tag (rho); made in house; host or cells: insect larval cells infected with recombinant Bacmid (Bac-to-Bac baculovirus system); membrane preparation
T1 sequence (Q9JKT4 1-300): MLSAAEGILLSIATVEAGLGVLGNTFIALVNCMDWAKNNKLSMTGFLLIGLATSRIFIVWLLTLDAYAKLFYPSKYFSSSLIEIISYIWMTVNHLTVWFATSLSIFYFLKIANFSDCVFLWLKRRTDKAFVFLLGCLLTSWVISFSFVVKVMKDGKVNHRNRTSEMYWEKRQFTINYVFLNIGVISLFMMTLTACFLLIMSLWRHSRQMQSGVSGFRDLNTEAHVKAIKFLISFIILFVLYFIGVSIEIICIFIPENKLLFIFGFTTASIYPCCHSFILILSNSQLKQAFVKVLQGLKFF
Description: To investigate the selectivity of T2R-G-protein coupling, mT2R5 was chosen for study because its activation by cycloheximide recapitulates mouse taste responses. Rho-tagged mT2R5 and gustducin were prepared using a baculovirus expression system. mT2R5-containing membranes were incubated with various purified G-proteins, including gustducin, and measured tastant-induced GTP-γS binding (Hoon et al., Biochem J 309:629-636 (1995)). Specifically, infectious Bacmid containing rhodopsin tagged mT2R5 (DBA/2-allele) was produced using the Bac-to-Bac system (Lifetechnologies, MD). Insect larval cells were infected for 60 h with recombinant Bacmid and membranes were prepared as described previously (Ryba and Tirindelli, J Biol Chem, 270:6757-6767 (1995)). Peripheral proteins were removed by treatment with 8 M urea and membranes were resuspended in 10 mM HEPES pH7.5, 1 mM EDTA and 1 mM DTT. The expression of rho-mT2R5 was assessed by Western blot using mAb B6-30 and quantitated by comparison with known amounts of rhodopsin. Approximately 300 pmol of rho-mT2R5 could be obtained from 2×10^8 infected cells. Gustducin and Gβ1γ8 heterodimers were isolated as described previously (Hoon et al., Biochem J 309:629-636 (1995); Ryba and Tirindelli, J Biol Chem, 270:6757-6767 (1995)). Receptor-catalyzed exchange of GDP for GTPγS on gustducin and other G-protein α-subunits was measured in the presence of 10 nM rho-mT2R5, 100 μM GDP, and 20 μM Gβ1γ8. All measurements were made at 15-minute time points, and reflect the initial rate of GTPγS binding.

mT2R5 = biological target: T2, mT2R5 (Mus musculus, UniProt Q9JKT4); assay: FURA-2 [Ca2+]i imaging in HEK-293 cells expressing Gα15 and rho-mT2R5 (taster, DBA/2 allele); type: cell-based; settings: for [Ca2+]i response (FURA-2): 1.5 μM cycloheximide
T2 construct: expressed in transfected cells; host or cells: modified HEK-293 cells (PEAKrapid) expressing Gα15; pEAK10 vector
T2 sequence (Q9JKT4 1-300): T1 sequence (Q9JKT4 1-300)
Description: In this system, receptor activation leads to increases in intracellular calcium [Ca2+]i, which can be monitored at the single cell level using the FURA-2 calcium-indicator dye (Tsien et al., Cell Calcium 6:145-157 (1985)). To test and optimize Gα15 coupling, two different GPCRs, a Gαi-coupled μ-opioid receptor (Reisine, Neuropharm. 34:463-472 (1995)) and a Gαq-coupled mGluR1 receptor (Masu et al., Nature 349:760-765 (1991)), were used. Transfection of these receptors into HEK-293 cell produced robust, agonist-selective, and Gα15-dependent Ca^2+ responses (FIG. 1).
A number of studies have shown that many GPCRs, in particular sensory receptors, require specific “chaperones” for maturation and targeting through the secretory pathway (Baker et al., Embo J 13:4886-4895 (1994); Dwyer et al., Cell 93:455-466 (1998)). Recently, Krautwurst et al. (Cell 95:917-926 (1998)) generated chimeric receptors consisting of the first 20 amino acids of rhodopsin and various rodent olfactory receptors. These were targeted to the plasma membrane and functioned as odorant receptors in HEK-293 cells. To determine whether rhodopsin sequences can also help target T2Rs to the plasma membra, rhodopsin-T2R chimeras (rho-T2Rs) were constructed. […] Similar results were obtained with 11 human and 16 rodent T2Rs (see below). To further enhance the level of T2R expression, rho-T2Rs were placed under the control of a strong EF-1α promoter, and introduced as episomal plasmids into modified HEK-293 cells expressing Gα15 (pEAKrapid cells).
A bridge overlap PCR extension technique was used to generate rho-T2R chimeras, which contain the first 39 amino acids of bovine rhodopsin in frame with human and rodent T2R coding sequences (Mehta and Singh, Biotechniques 26:1082-1086 (1999). All receptors were cloned into a pEAK10 mammalian expression vector (Edge Biosystems, MD). Modified HEK-293 cells (PEAK^rapid cells; Edge BioSystems, MD) were grown and maintained at 37° C. in UltraCulture medium (Bio Whittaker) supplemented with 5% fetal bovine serum, 100 μg/ml Gentamycin sulphate (Fisher), 1 μg/ml Amphotericin B and 2 mM GlutaMax I (Lifetechnologies). For transfection, cells were seeded onto matrigel coated 24-well culture plates or 35 mm recording chambers. After 24 h at 37° C., cells were washed in OptiMEM medium (Lifetechnologies) and transfected using LipofectAMINE reagent (Lifetechnologies). Transfection efficiencies were estimated by co-transfection of a GFP reporter plasmid, and were typically >70%. Immunofluoresence staining, and activity assays were performed 36-48 h after transfection.
Transfected cells were washed once in Hank's balanced salt solution with 1 mM sodium pyruvate and 10 mM HEPES, pH 7.4 (assay buffer), and loaded with 2 μM FURA-2 AM (Molecular Probes) for 1 h at room temperature. The loading solution was removed and cells were incubated in 200 μl of assay buffer for 1 h to allow the cleavage of the AM ester. For most experiments, 24-well tissue culture plates containing cells expressing a single rho-T2R were stimulated with 200 μl of a 2× tastant solution (see next section). [Ca^2+]i changes were monitored using a Nikon Diaphot 200 microscope equipped with a 10×/0.5 fluor objective with the TILL imaging system (T.I.L.L Photonics GmbH). Acquisition and analysis of the fluorescence images used TILL-Vision software. Generally, [Ca^2+]i was measured for 80-120 s by sequentially illuminating cells for 200 ms at 340 nm and 380 nm and monitoring the fluorescence emission at 510 nm using a cooled CCD camera. The F340/F380 ratio was analyzed to measure [Ca^2+]i.
Kinetics of activation and deactivation were measured using a bath perfusion system. Cells were seeded onto a 150 μl microperfusion chamber, and test solutions were pressure-ejected with a picospritzer apparatus (General Valve, Inc.). Flow-rate was adjusted to ensure complete exchange of the bath solution within 4-5 s. […]

Compound	Kd [1] [µM]	coupling of mT2R5 to gustducin [1]	gustducin activation ([1]; 300 μM)	EC50 (mT2R5) [µM]	response of cells expressing mT2R5 (mT2R5)	response to successive applications (mT2R5)	threshold of response (mT2R5) [µM]	[Ca2+]i response (FURA-2) (mT2R5; absence of Gα15)	[Ca2+]i response (FURA-2) (mT2R5; with Gα15)	specificity of [Ca2+]i response (mT2R5; 5 μM)	[Ca2+]i changes in cells lacking receptor or Gα15 (mT2R5; 5000-fold higher concentration)	cells responding (mT2R5; entire camera field) [%]	response to prolonged exposure (mT2R5; exposure >10 s)	response under superfusion (mT2R5; micromolar concentrations)	latency of response (mT2R5; microperfusion chamber) [s]	receptor activation by tastant pulses (mT2R5; multiple pulses of 2 μM)	gustducin activation ([1]; 1 mM)	[Ca2+]i response to tastant (mT2R5; 5 mM)
C[C@@H]1C[C@@H]([C@H](O)CC2CC(=O)NC(=O)C2)C(=O)[C@@H](C)C1 [cycloheximide]	14.8	exquisite cycloheximide-dependent coupling	activate gustducin	0.5	specifically responded	significantly reduced responses	~0.2	No increase in [Ca2+]i	robust Gα15 dependent responses	highly specific	did not trigger [Ca2+]i changes	> 70	adaptation	robust transient responses	< 1	robust receptor activation	–	–
CC[N+](CC)(CC(=O)Nc1c(C)cccc1C)Cc1ccccc1 [denatonium]	–	–	–	–	–	–	–	–	–	–	–	–	–	–	–	–	not	not observed
